One data set concerns Huh7 cells. Description: MTT cytotoxicity assay on Huh7 cells. Format: cell-based, human. The conditions noted are these: for IC50: Homo sapiens, Huh-7, 48 h. On the procedure: (§1) MTT-based cell viability assay was carried out to evaluate the antiproliferation potential of the target compounds on HCC cell lines (HepG2 and Huh7). The half maximal inhibitory concentration (IC50) values were calculated against DMSO non-treated HepG2 cells (negative control) and Dox-treated HepG2 cells (positive control). The assay was conducted using 3-(4, 5-di-MethylThiazol-2-yl)-2,5-diphenyl Tetrazolium bromide (MTT) to test cell viability, according to the method described by Mosmann with minor changes. The yellow MTT is reduced in the viable cells to purple formazan. The insoluble formazan is solubilized by DMSO to colored solution measured spectrophotometrically. Briefly, cells were seeded in a 96-well plate at density of 1 × 10^4 cells/well for 24 h in 5% CO2 incubator at 37 °C to allow their adherence. […] After incubation, 20 μL of a 5 mg/mL MTT solution were mixed with the contents of each well, and the plate was incubated for another 4 h. Then, the medium was suctioned, and the wells were washed with PBS. After 2 h of drying, 200 μL of DMSO was added to each well. The plate was set on a shaker to dissolve the formazan crystals. Then, the absorbance was measured spectrophotometrically at 570 nm with a reference wavelength of 630 nm using ELX800 UV universal microplate reader (BioTek Instruments Inc., VT, Santa Clara, CA, USA).
(§2) All experiment conditions were tested in three replicates. The % cell viability was calculated from the following equation: (mean absorbance of treated sample/mean absorbance of negative control sample) × 100. The % death rate = 100 -% cell viability, and the inhibitory concentration of 50% (IC50) was measured from the exponential curve of viability against concentration (dose–response curve).
A general note: Tetrazolium dyes change colour on reduction, which living cells bring about.

Data set [1] in a line: In vitro safety/cell viability MTT assay on normal RPE1 cells. As to conditions: human, RPE1 cells (noncancerous), normal RPE1 cells, MTT. The format is cell-based, human.
Another data set concerns mice. Nature of the data set: In vivo acute (14-day) oral toxicity study. The conditions noted are these: for S.ALT / S.AST / S.Creatinine / S.D.Bilirubin / S.T.Bilirubin / S.Urea: 14 days after single dose, compounds 250 mg/kg oral, doxorubicin 15 mg/kg I.P; for Survival over the treatment period (14 days) / Physical or abnormal changes (body weight, skin, fur, eyes, behavior, overall appearance): single acute oral dose of 250 mg/kg; for Physical or abnormal changes (body weight, skin, fur, eyes, behavior, overall appearance): 14 days. From the text: GPower 3.0.10 software was used to estimate the sample size needed for the experiment and the number of mice per group but, according to the Organization for Economic Cooperation and Development (OECD) Test Guidelines No. 407 (OECD, 2008 and updated 2017) and under the International Academy of Science’s Guide for the Care and Use of Laboratory Animals, as well as the ARRIVE guidelines, to use the least number of mice per group for the acute single dose oral toxicity test.
Animals were divided randomly into nine groups (5 animals per group). Before the experiment, the body weight (BW) of all mice was recorded. All mice were made to fast for 24 h and treated once (day zero) then carefully monitored for 14 days.
Normal control group: mice received saline orally once;
Negative control group: mice received vehicle (DMSO) orally once;
Positive control group: mice were injected with Dox (15 mg/kg BW, i.p.) once.
Isatin-sulfonamide-derivative-compound-treated groups (2a, 3a, 3d and 4b, 4c and 4d) of mice received 250 mg/kg BW of each orally once.
The animals’ BWs were recorded at the end of the 14 days of observation. Blood samples were collected from the retro-orbital plexus and allowed to clot. Sera were prepared by centrifugation at 4000 rpm for 15 min and then kept frozen at − 80 °C for liver and kidney function tests (LFTs and KFTs). Thereafter, mice were deprived of food overnight, euthanized, and sacrificed by cervical dislocation. Liver and kidney tissues were collected, washed with ice-cold saline, and weighed. Excised weighed livers and kidneys were fixed in a suitable buffer for histological examination.
Liver and kidney tissues were fixed in 10% neutral buffered formaldehyde overnight and then embedded in paraffin, […] in serial grades of alcohols, cleared in xylene, and were subjected to […], where 4 μm thick tissue sections were cut by rotatory microtome. Tissue sections were stained with hematoxylin and eosin (H and E) for histological examination using full HD light microscopic imaging system (Leica Microsystems GmbH, Wetzlar, Germany). Standard procedures for sample fixation and staining were done as previously described.

For data set [2], the system named is HepG2 cells. Nature of the data set: MTT cytotoxicity assay on HepG2 cells. The format is cell-based. The conditions noted are these: Homo sapiens; for cytotoxicity at 100 ppm: 48 h, 100 p.p.m (μg/mL), read-out: % Death Rate at 100 p.p.m (μg/mL) HepG2; for IC50: HepG2, 48 h. On the procedure: as §1, §2
Data set [3] has as its system HepG2 cells. Nature of the data set: Annexin V/FITC-PI apoptosis assay. Format: cell-based, human. As to conditions: HepG2, IC50 of the compound, 24 h (method says 48 h). On the procedure:
Annexin V/PI double staining kit (eBiosciencesDx) was used to detect apoptotic activity of the selected isatin sulfonamide derivatives. The Annexin V corresponding signal provides a very sensitive marker for cellular apoptosis, while PI was used to detect necrotic or late apoptotic cells, identified by the loss of plasma integrity and loss of nuclear membranes.
Briefly, 1 × 10^5 cells/mL of HepG2 cells were seeded into a 6-well plate and incubated at 37 °C, 5% CO2, overnight. […] After time elapsed, trypsinization of cells was carried out. Washing was done by PBS once, followed by fixation using 70% ethanol. Fixed cells were stored at 4 °C for 2 h, then centrifuged at 500× g for 5 min. Again, cells were washed with PBS prior to staining. An amount of 200 μL of the staining solution (annexin V- fluorescein 5-isothiocyanate (FITC) and PI in binding buffer (10 mM HEPES, 140 mM NaCl, and 2.5 mM CaCl2 at pH 7.4)) were added to the cell suspension and incubated at 37 °C for 20 to 30 min in dark and analyzed with a fluorescence-activated cell sorter (FACS) (BD FACSCalibur, BD Biosciences, California, USA). Data were analyzed using ModFit LT v2.0 (Verity Software House, Topsham, Maine, USA).
These plots were divided into four regions corresponding to: • (1) Viable cells, which are negative to both probes (PI/FITC −/−), • (2) Apoptotic cells, which are PI negative and Annexin positive (PI/FITC −/+), • (3) Late apoptotic cells, which are both PI and Annexin positive (PI/FITC +/+), • (4) Necrotic cells, which are PI positive and Annexin negative (PI/FITC+/−).

Marks after values point to notes of the source that are not given here.

The IC50 is the concentration that gives 50% inhibition. Broadly, the CC50 is the concentration giving 50% cytotoxicity. A lower CC50 goes with harm at low concentration. What is called viability is a per cent measure of how many cells are alive, often set against a control. A higher viability goes with less harm to the cells. `CCOC(=O)/C(C#N)=C1\C(=O)Nc2ccc(S(=O)(=O)N3CCCCC3)cc21` [Compound 2a]: the “% Death Rate at 100 p.p.m (μg/mL) Huh7” value with Huh7 cells (48 h, 100 p.p.m (μg/mL)) was 100 * %. In the data set on Huh7 cells, this compound gave a half-inhibitory concentration (IC50) of 40 ± 3.8 µM. In data set [1], the CC50 at 48 h amounted to 40.3 ± 1.61 µM and the viability at 48 h, 100 p.p.m (μg/mL) came out at 4.4%. In the data set with mice, the S.ALT is 28.42 ± 0.27 ^^ U/L, the S.AST was 37.11 ± 0.35 ^^ U/L, the S.Creatinine was 0.59 ± 0.04 ^^ mg/dL and the S.D.Bilirubin is on record as 0.16 ± 0.003 ^^ mg/dL. Also, in the data set with mice, the S.T.Bilirubin is listed as 0.65 ± 0.018 ^^ mg/dL; the S.Urea is on record as 52.24 ± 0.65 ^^ mg/dL; the “Survival over the treatment period (14 days)” value is “survived”; the “Physical or abnormal changes (body weight, skin, fur, eyes, behavior, overall appearance)” value (“Physical or abnormal changes” for short) is listed as “No physical or abnormal changes were observed”. In the data set on HepG2 cells [2], the cytotoxicity at 100 ppm stood at 81.5% and half-maximal inhibition (IC50) required 54.6 ± 2 µM.
The compound `N#C/C(C(N)=O)=C1/C(=O)Nc2ccc(S(=O)(=O)N3CCCCC3)cc21` [Compound 2b] returned an IC50 with Huh7 cells of over 100 µM. Moreover, in the data set with HepG2 cells [2], the cytotoxicity at 100 ppm came to 10.2% and the IC50 was over 100 µM.
For the compound `Nc1cccc(C(=O)CC2(O)C(=O)Nc3ccc(S(=O)(=O)N4CCCCC4)cc32)c1` (centres unmarked) [Compound 3b], the IC50 with Huh7 cells and in the data set on HepG2 cells [2] was over 100 µM throughout. Further, in the data set with HepG2 cells [2], the cytotoxicity at 100 ppm turned out to be 1.2%.
For the compound `Nc1ccc(C(=O)CC2(O)C(=O)Nc3ccc(S(=O)(=O)N4CCCCC4)cc32)cc1` (centres unmarked) [Compound 3c], in the data set with HepG2 cells [3], the “%Cell Death Late Apoptosis” value turned out to be 18.08%. Besides, the IC50 with Huh7 cells and in the data set on HepG2 cells [2] was over 100 µM throughout. In addition, the cytotoxicity at 100 ppm in the data set on HepG2 cells [2] stood at 11.5%.
For `O=C(CC1(O)C(=O)Nc2ccc(S(=O)(=O)N3CCCCC3)cc21)c1ccc(O)cc1` (centres unmarked) [Compound 3d], the concentration for half-maximal inhibition (IC50) in the data set with Huh7 cells and in the data set on HepG2 cells [2] was over 100 µM each time. In addition, the cytotoxicity at 100 ppm in the data set on HepG2 cells [2] was determined as 19.5%.
Consider `Cc1ccc(C(=O)/C=C2\C(=O)Nc3ccc(S(=O)(=O)N4CCCCC4)cc32)cc1` [Compound 4a], for which the IC50 in the data set on Huh7 cells was over 100 µM. For the same compound, in data set [1], the cytotoxic concentration (CC50) at 48 h is 21.9 ± 1.15 µM and the viability at 48 h, 100 p.p.m (μg/mL) came to 0%. In addition, in the data set on mice, the S.ALT was 28.14 ± 0.56 ^^ U/L, the S.AST was 36.51 ± 0.15 ^^ U/L, the S.Creatinine was 0.70 ± 0.02 ^^ mg/dL and the S.D.Bilirubin is on record as 0.17 ± 0.004 ^^ mg/dL. Further, in the data set on mice, the S.T.Bilirubin is 0.72 ± 0.019 ^^ mg/dL; the S.Urea is on record as 55.10 ± 2.96 ^^ mg/dL; the “Survival over the treatment period (14 days)” value is given as “survived”; the “Physical or abnormal changes” value was “No physical or abnormal changes were observed”. For the same compound, in the data set on HepG2 cells [2], the cytotoxicity at 100 ppm came to 100% and half-maximal inhibition (IC50) was put at 12 ± 0.4 µM.
Take `O=C1Nc2ccc(S(=O)(=O)N3CCCCC3)cc2/C1=C/C(=O)c1ccc(O)cc1` [Compound 4d]: in the data set with Huh7 cells, the IC50 is 18.8 ± 0.8 µM. In data set [1], the CC50 at 48 h amounted to 11.9 ± 0.7 µM and the viability at 48 h, 100 p.p.m (μg/mL) is 0%. In the data set on mice, the S.ALT was 30.14 ± 0.93 ^^ U/L, the S.AST is 38.72 ± 1.37 ^#,^ U/L, the S.Creatinine is given as 0.85 ± 0.03 ^^ mg/dL and the S.D.Bilirubin is reported as 0.18 ± 0.004 ^^ mg/dL. Also, in the data set with mice, the S.T.Bilirubin is reported as 0.69 ± 0.016 ^^ mg/dL; the S.Urea is on record as 48.18 ± 0.53 ^^ mg/dL; the “Survival over the treatment period (14 days)” value is “survived”; the “Physical or abnormal changes” value is on record as “No physical or abnormal changes were observed”. Moreover, in the data set with HepG2 cells [2], the cytotoxicity at 100 ppm amounted to 100% and the midpoint of inhibition, the IC50, lay at 13.3 ± 0.75 µM.

These data come from publication PMC8945686, “Anticancer Effects with Molecular Docking Confirmation of Newly Synthesized Isatin Sulfonamide Molecular Hybrid Derivatives against Hepatic Cancer Cell Lines” (Biomedicines, 2022).
